# Literature values, collected in patent publication US8529964B1, “Method and composition for suppression and control of citrus canker and other plant diseases” (priority 2010, dated 2013).
smiles,measurement,value
O.O.O=C([O-])c1ccccc1.O=C([O-])c1ccccc1.[Cu+2] [copper benzoate dehydrate],water solubility (in words),slightly water soluble
